Results: US6821988B2, “3-cyanoquinolines as inhibitors of EGF-R and HER2 kinases” (Wyeth Holdings Corporation, priority 2001, dated 2004)
In brackets after ≈: the same amount, converted by molar mass.

Assays:
[1] = system: A431 (epidermoid carcinoma); test: Inhibition of cancer cell growth, sulforhodamine B assay, A431; assay type: cell-based, human; conditions: A431, 2 days; for IC50: Homo sapiens, A-431, 48 h, read-out: Inhibition of Cancer Cell Growth in vitro IC50, A431
Description: (§1) […], A431 (epidermoid carcinoma), SKBR3 (breast carcinoma), SW620 (colon carcinoma), and MDA-MB435 (breast carcinoma), BT474 (breast carcinoma), and two murine lines, 3T3 (murine fiboblasts) and HER2-3T3 (murine fiboblasts transfected with human HER2) were used for cell proliferation assays. Cells were maintained in RPMI -1640 medium supplemented with 5% fetal bovine serum. Cells were plated in 96-well plates at the densities of 2.5×10^4/ml for 3T3 and 3T3/HER2 and 5.0×10^4/ml for the rest of the cell lines. On the next day, compounds were dosed at 0.5, 5, 50, 500, and 5000 ng/ml and cultured for 2 days. At the end of incubation, cell survival was determined by the sulforhodamine B assay as previously described (Skehan, P; Stornet, R.; Scudiero, D.; Monks, A.; McMahon, J.; Vistica D., Warren, J.; Bokbosch, H.; Kenny, S.; Boyd, M. New Colorimetric Cytotoxic Assay for Anticancer-Drug Screening. J. Natl. Cancer Inst. 1990, 82, 1107-1112). The IC50 values (the concentration needed to inhibit cell growth by 50%) were obtained from the growth curves and are shown below in Table 2 where the results of multiple determinations are included.

[2] = system: 3T3 (murine fiboblasts); test: Inhibition of cell growth, sulforhodamine B assay, 3T3; assay type: cell-based; conditions: 3T3, 2 days; for IC50: Mus musculus, 48 h, read-out: Inhibition of Cancer Cell Growth in vitro IC50, 3T3
Description: as §1

[3] = system: MDA-MB435 (breast carcinoma); test: Inhibition of cancer cell growth, sulforhodamine B assay, MDA-MB435; assay type: cell-based, human; conditions: MDA-MB435, 2 days; for IC50: Homo sapiens, MDA-MB-435, 48 h, read-out: Inhibition of Cancer Cell Growth in vitro IC50, MDA-MB435
Description: as §1

[4] = molecular target: T1, human HER2 cytoplasmic domain (HER2-CD, amino acid 676-1255) (Homo sapiens, UniProt P04626); test: Inhibition of HER2 kinase autophosphorylation, recombinant enzyme, DELFIA/time-resolved fluorometry; assay type: biochemical; conditions: for IC50: recombinant HER2 autophosphorylation
T1 construct: human HER2 cytoplasmic domain (HER2-CD, amino acid 676-1255); made in house; host or cells: Sf-9 insect cells, baculovirus (pBlueBacHis2B)
Description: (§2) A 1.7 kb cDNA encoding human HER2 cytoplasmic domain (HER2-CD, amino acid 676-1255) and 1.6 kb cDNA for EGFR cytoplasmic domain (EGFR-CD, amino acid 645-1186) were cloned into baculoviral expression vectors, pBlueBacHis2B (Invitrogen) and pFASTBacHTc (GIBCO), separately. A sequence encoding (His)6 is located at the 5′ end upstream to HER2 and EGFR sequences. Sf-9 cells were infected at moi=10 for 3 days for protein expression. Sf-9 cell pellets were solubilized on ice in buffer containing 50 mM HEPES, pH 7.4, 10 mM NaCl, 1% Triton, 10 μM ammonium molybdate, 100 μM sodium vanadate, 10 μg/ml aprotinin, 10 μg/ml leupeptin, 10 μg/ml pepstatin, and 16 ug/ml benzamidine HCl for 20 min followed by 20 min centrifugation. Crude extract supernatant was passed through equilibrated Ni-NTA superflow packed column (Qiagen, Valencia, Calif.) and wash with 10 mM, and 100 mM imidazole to remove unspecific binding. Histidine-tagged proteins were eluted with 250 mM and 500 mM imidazole and dialyzed against 50 mM NaCl, 20 mM HEPES, 10% glycerol and 1 μg/ml each of aprotinin, leupeptin and pepstatin for 2 h. All the purification procedure was performed at 4° C. or on ice. Purified materials were subjected for electrophoresis followed by Coommassie blue stain to determine the purity of the preparation and Western blot for the identity of protein. Enzymes were aliquoted and stored at −80° C.
(§3) Inhibition of EGFR and HER2 kinase autophosphorylation was measured by a DELFIA/time-resolved fluorometry assay. Compounds were dissolved in 100% DMSO and diluted to the appropriate concentrations with 25 mM HEPES, pH 7.4. In each well, 10 μl of compound was incubated with 10 μl of recombinant EGF-R or HER2 enzyme (1:80 dilution in 100 mM HEPES) for 10 min at room temperature. Then, 10 μl of 5×buffer (containing 20 mM HEPES, 2 mM MnCl2, 100 uM Na3VO4 and 1 mM DTT) and 20 μl of 0.1 mM ATP/50 mM MgCl2 was added for 1 h. Positive and negative controls were included in each plate by incubation of enzyme with or without ATP/MgCl2. At the end of incubation, liquid was aspirated and washed three times with wash buffer. 75 μl (400 ng).of europium-labeled anti-phosphotyrosine antibody was added to each well for another hour of incubation. After wash, enhancement solution was added and the signal was detected by Victor (Wallac Inc) with excitation at the wavelength of 340 nm and emission at the wavelength of 615 nm. All reagents were supplied by Wallac Inc (Wallac/Perkin-Elimer). Percentage of autophosphorylation inhibition by compound was calculated by […]. IC50 values were obtained from curves of percentage inhibition with 8 doses of compound.

[5] = system: SKBR3 (breast carcinoma); test: Inhibition of cancer cell growth, sulforhodamine B assay, SKBR3; assay type: cell-based, human; conditions: SKBR3, 2 days; for IC50: Homo sapiens, SK-BR-3, 48 h, read-out: Inhibition of Cancer Cell Growth in vitro IC50, SKBR3
Description: as §1

[6] = system: SW620 (colon carcinoma); test: Inhibition of cancer cell growth, sulforhodamine B assay, SW620; assay type: cell-based, human; conditions: SW620, 2 days; for IC50: Homo sapiens, SW-620, 48 h, read-out: Inhibition of Cancer Cell Growth in vitro IC50, SW620
Description: as §1

[7] = system: HER2-3T3 (murine fiboblasts transfected with human HER2); test: Inhibition of cell growth, sulforhodamine B assay, HER2-3T3; assay type: cell-based; conditions: HER2-3T3, 2 days; for IC50: Mus musculus, 48 h, read-out: Inhibition of Cancer Cell Growth in vitro IC50, HER2-3T3
Description: as §1

[8] = molecular target: T2, EGFR cytoplasmic domain (EGFR-CD, amino acid 645-1186) (Homo sapiens, UniProt P00533); test: Inhibition of EGF-R kinase autophosphorylation, recombinant enzyme, DELFIA/time-resolved fluorometry; assay type: biochemical
T2 construct: EGFR cytoplasmic domain (EGFR-CD, amino acid 645-1186); made in house; host or cells: Sf-9 insect cells, baculovirus (pFASTBacHTc)
Description: as §2, §3

[9] = system: Murine 3T3 fibroblasts, tranfected with Her2; test: In vivo inhibition of the growth of tumors of murine 3T3 fibroblasts transfected with HER2 in nude mice; parameters: species or system Athymic nu/nu female mice
Description: Representative compounds of this invention (listed below) were evaluated in an in vivo standard pharmacological test procedure which measures their ability to inhibit tumor growth in nude mice. Murine 3T3 fibroblasts, tranfected with Her2 were grown in vitro. Athymic nu/nu female mice (Charles River, Wilmington, Mass.) were used in this in vivo standard pharmacological test procedure. A unit of 2×10^6 cells was injected SC into mice (day zero). Beginning on day 1, mice were treated IP every other day for a total of 11 days with a dose of 30 mg/kg/dose of the compound to be evaluated in 0.5% Methocel/0.4% Tween 80. Control animals received vehicle alone. […] Absolute tumor growth in mgs, (mean tumor mass on days 7, 14 and 21), is calculated for each treatment group. Statistical analysis (Student t-test) of Mean Tumor Mass compares treated verses control groups. A p-value of ≦0.05 indicates a statistically significant reduction in tumor growth of treated group compared to the vehicle control.
The compound of Example 7 was evaluated for its ability to inhibit the growth of a murine fiboblast tumor that was transfected with human HER2 in vivo using the standard pharmacological test procedure described above.

[10] = 30 mg/kg/dose IP on days 1, 3, 5, 7, 9 and 11, day 7
[11] = 30 mg/kg/dose IP on days 1, 3, 5, 7, 9 and 11, day 14

T2 sequence (P00533 669-1210): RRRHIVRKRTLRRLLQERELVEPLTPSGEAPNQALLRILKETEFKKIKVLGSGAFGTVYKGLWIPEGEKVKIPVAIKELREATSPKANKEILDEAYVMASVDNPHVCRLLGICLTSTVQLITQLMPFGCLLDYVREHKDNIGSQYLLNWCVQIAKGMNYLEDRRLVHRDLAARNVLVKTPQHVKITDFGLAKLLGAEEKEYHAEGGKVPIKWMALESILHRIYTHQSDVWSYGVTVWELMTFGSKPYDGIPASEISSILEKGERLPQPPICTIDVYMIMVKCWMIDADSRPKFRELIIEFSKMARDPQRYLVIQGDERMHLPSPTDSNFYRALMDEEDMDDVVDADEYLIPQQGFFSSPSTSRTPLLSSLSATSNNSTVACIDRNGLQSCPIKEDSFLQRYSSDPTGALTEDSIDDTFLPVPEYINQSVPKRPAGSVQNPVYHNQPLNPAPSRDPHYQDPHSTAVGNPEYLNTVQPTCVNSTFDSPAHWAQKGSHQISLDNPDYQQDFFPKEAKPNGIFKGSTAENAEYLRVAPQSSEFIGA
T1 sequence (P04626 676-1255): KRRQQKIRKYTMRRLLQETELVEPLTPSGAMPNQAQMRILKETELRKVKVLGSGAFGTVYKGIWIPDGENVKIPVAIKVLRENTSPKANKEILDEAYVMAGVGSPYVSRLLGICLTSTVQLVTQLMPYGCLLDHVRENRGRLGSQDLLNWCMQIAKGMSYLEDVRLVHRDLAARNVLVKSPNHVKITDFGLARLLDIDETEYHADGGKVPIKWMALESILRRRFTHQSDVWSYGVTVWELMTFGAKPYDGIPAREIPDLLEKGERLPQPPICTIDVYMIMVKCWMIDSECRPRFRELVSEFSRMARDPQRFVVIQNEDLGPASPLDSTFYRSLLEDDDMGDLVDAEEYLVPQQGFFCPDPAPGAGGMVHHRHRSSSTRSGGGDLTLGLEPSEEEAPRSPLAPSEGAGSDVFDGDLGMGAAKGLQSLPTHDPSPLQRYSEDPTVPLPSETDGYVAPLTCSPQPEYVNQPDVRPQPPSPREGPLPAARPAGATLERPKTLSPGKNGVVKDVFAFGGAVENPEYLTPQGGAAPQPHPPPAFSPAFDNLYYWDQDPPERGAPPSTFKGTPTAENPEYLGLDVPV

Compound: COc1cc2ncc(C#N)c(Nc3ccc(F)c(Cl)c3)c2cc1NC(=O)CC(CN1CCC(O)C1)N1CCC(O)C1 (stereo not shown) [Example 2, N-[4-(3-Chloro-4-fluoro-phenylamino)-3-cyano-7-methoxy-quinolin-6-yl]-3,4-bis-(3-hydroxy-pyrrolidin-1-yl)-butyramide]
- Inhibition of Cancer Cell Growth in vitro IC50, A431 [1]: 0.466 µg/mL
- IC50 [1]: 0.572 µg/mL (≈ 0.981 µM)
- Inhibition of Cancer Cell Growth in vitro IC50, 3T3 [2]: 4.39 µg/mL
- IC50 [2]: 4.47 µg/mL (≈ 7.67 µM)
- IC50 [3]: 4.05 µg/mL (≈ 6.95 µM)
- Inhibition of Cancer Cell Growth in vitro IC50, MDA-MB435 [3]: 3.25 µg/mL
- inhibition at 2 µg/mL ([4]; read-out: HER2 % Inhibition at 2 μg/mL): 57%
- IC50 [5]: 0.129 µg/mL (≈ 0.221 µM)
- Inhibition of Cancer Cell Growth in vitro IC50, SKBR3 [5]: 0.128 µg/mL
- melting point: 139 to 143 °C
- IC50 [6]: 2.95 µg/mL (≈ 5.06 µM)
- Inhibition of Cancer Cell Growth in vitro IC50, SW620 [6]: 2.58 µg/mL
- Inhibition of Cancer Cell Growth in vitro IC50, HER2-3T3 [7]: 0.702 µg/mL
- IC50 [7]: 1.26 µg/mL (≈ 2.16 µM)

Compound: CCOc1cc2ncc(C#N)c(Nc3ccc(F)c(Cl)c3)c2cc1NC(=O)CC(C)N(C)C (stereo not shown) [Example 3, N-[4-(3-Chloro-4-fluoroanilino)-3-cyano-7-ethoxy-6-quinolinyl]-3-(dimethylamino)butanamide]
- Inhibition of Cancer Cell Growth in vitro IC50, A431 [1]: 0.27 µg/mL
- IC50 [1]: 0.48 µg/mL (≈ 1.02 µM)
- IC50 [2]: 1.3 µg/mL (≈ 2.77 µM)
- EGF-R IC50 [8]: 0.33 µg/mL
- IC50 [4]: 10000 nM
- IC50 [5]: 0.11 µg/mL (≈ 0.234 µM)
- Inhibition of Cancer Cell Growth in vitro IC50, SKBR3 [5]: 0.17 µg/mL
- IC50 [6]: 1.1 µg/mL (≈ 2.34 µM)
- IC50 [7]: 1.7 µg/mL (≈ 3.62 µM)

Compound: CCOc1cc2ncc(C#N)c(Nc3ccc(OCc4ccccc4)c(Cl)c3)c2cc1NC(=O)CC(CCCN(C)C)N(C)C (stereo not shown) [Example 5, N-{4-[4-(Benzyloxy)-3-chloroanilino]-3-cyano-7-ethoxy-6-quinolinyl}-3,6-bis(dimethylamino)hexanamide]
- Inhibition of Cancer Cell Growth in vitro IC50, A431 [1]: 0.73 µg/mL
- IC50 [1]: 0.87 µg/mL (≈ 1.38 µM)
- IC50 [2]: 0.42 µg/mL (≈ 0.668 µM)
- EGF-R IC50 [8]: 1.0 µg/mL
- IC50 [3]: 0.36 µg/mL (≈ 0.572 µM)
- Inhibition of Cancer Cell Growth in vitro IC50, MDA-MB435 [3]: 0.49 µg/mL
- IC50 [4]: 1590 nM
- IC50 [6]: 0.19 µg/mL (≈ 0.302 µM)
- IC50 [7]: 1.1 µg/mL (≈ 1.75 µM)

Compound: CCOc1cc2ncc(C#N)c(Nc3ccc(OCc4ccccc4)c(Cl)c3)c2cc1NC(=O)CC(CN1CCCC1)N1CCCC1 (stereo not shown) [Example 7, N-{4-[4-(Benzyloxy)-3-chloroanilino]-3-cyano-7-ethoxy-6-quinolinyl}-3,4-di(1-pyrrolidinyl)butanamide]
- Inhibition of Cancer Cell Growth in vitro IC50, 3T3 [2]: 0.37 µg/mL
- IC50 [2]: 0.35 µg/mL (≈ 0.536 µM)
- inhibition of tumor growth (in words) ([9]; 30 mg/kg i.p.): significantly inhibited tumor growth
- tumors in the control mice larger than tumors in treated mice (fold) ([9]; 30 mg/kg i.p., day 14): 8.5 times
- % T/C Day 7 [9, 10]: 15%
- Mean Tumor Weight Day 7 [9, 10]: 39 mg
- % T/C Day 14 [9, 11]: 12%
- Mean Tumor Weight Day 14 [9, 11]: 261 mg
- Mean Tumor Weight Day 21 ([9]; 30 mg/kg/dose IP on days 1, 3, 5, 7, 9 and 11, day 21): 1849 mg
- S/T = No. Survivors/No. on Day +28 post tumor cell implantation ([9]; 30 mg/kg/dose IP on days 1, 3, 5, 7, 9 and 11, day +28): 10/10
- IC50 [4]: 33.7 nM
- Inhibition of Cancer Cell Growth in vitro IC50, SKBR3 [5]: 0.0025 µg/mL
- IC50 [6]: 0.23 µg/mL (≈ 0.352 µM)
- Inhibition of Cancer Cell Growth in vitro IC50, SW620 [6]: 0.28 µg/mL
- Inhibition of Cancer Cell Growth in vitro IC50, HER2-3T3 [7]: 0.014 µg/mL
- IC50 [7]: 0.017 µg/mL (≈ 0.026 µM)

Compound: CCOc1cc2ncc(C#N)c(Nc3ccc(F)c(Cl)c3)c2cc1NC(=O)CC(CN(C)C)SCC(NC(=O)CC[C@@H](N)C(=O)O)C(=O)NCC(=O)O (stereo partly drawn) [Example 8, (2R)-2-amino-5-({2-[(carboxymethyl)amino]-1-[({3-{[4-(3-chloro-4-fluoroanilino)-3-cyano-7-ethoxy-6-quinolinyl]amino}-1-[(dimethylamino)methyl]-3-oxopropyl}sulfanyl)methyl]-2-oxoethyl}amino)-5-oxopentanoic acid]
- Inhibition of Cancer Cell Growth in vitro IC50, A431 [1]: 0.21 µg/mL
- IC50 [1]: 0.2 µg/mL (≈ 0.258 µM)
- IC50 [2]: > 5 µg/mL
- IC50 [8]: 2190 nM
- IC50 [4]: 854 nM
- IC50 [6]: > 5 µg/mL

Compound: CCOc1cc2ncc(C#N)c(Nc3ccc(OCc4ccccc4)c(Cl)c3)c2cc1NC(=O)CC(CN(C)C)N(C)C (stereo not shown) [Example 9, N-{4-[4-(Benzyloxy)-3-chloroanilino]-3-cyano-7-ethoxy-6-quinolinyl}-3,4-bis(dimethylamino)butanamide]
- melting point: 102 to 104 °C
